# Measurements taken from publication PMC8662641, “Site-Specific Labeling of Endogenous Proteins Using CoLDR Chemistry” (Journal of the American Chemical Society, 2021).
# Values joined by “and” are separate entries in the source; they are usually repeats but may differ in a detail not shown here. Identical values can stand only once.
# Tests used:
# Buffer stability assay = assay type: physicochemical
# Method: A sample of 100 μM of the electrophile (1a–1p) was incubated with 100 μM 4-nitrocyanobenzene as an internal standard in a 100 mM potassium phosphate buffer of pH 8.0. All solvents were bubbled with argon. Reaction mixtures were kept at 37 °C with shaking. After 4 days (unless otherwise mentioned), 5 μL from the reaction mixture was injected into the LC/MS to check the stability of the compounds.
# BTK = BTK (Homo sapiens, UniProt Q06187); parameters: BTK kinase domain was expressed and purified as previously reported; made in house; method as in Reddi et al., J. Am. Chem. Soc. 2021, 143 (13), 4979–4992; conditions: ref Reddi et al., J. Am. Chem. Soc. 2021, 143 (13), 4979–4992; cited from earlier work
# BTK, sequence (Q06187 402-655 limits assumed): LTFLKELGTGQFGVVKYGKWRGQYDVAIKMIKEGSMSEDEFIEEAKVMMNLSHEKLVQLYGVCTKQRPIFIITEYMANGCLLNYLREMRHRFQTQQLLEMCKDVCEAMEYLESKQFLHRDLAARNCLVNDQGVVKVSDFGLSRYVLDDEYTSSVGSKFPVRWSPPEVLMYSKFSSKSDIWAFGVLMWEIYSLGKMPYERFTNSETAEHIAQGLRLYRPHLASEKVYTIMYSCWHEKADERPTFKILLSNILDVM
# BTK-1h = target: T1, BTK-1h (Homo sapiens, UniProt Q06187); assay: High-throughput screening with 1h-labeled BTK; assay type: binding
# T1 construct: The BTK kinase domain was diluted to 2 μM in the buffer, and 2 μM 1h was added; made in house
# T1 sequence (Q06187 402-655): as the sequence (Q06187 402-655 limits assumed) above
# Method: The collection was composed of BTK binding compounds obtained in our previous luminescence screen[37] (Data set S2). […] The resulting BTK-1h (50 μL) was added to the inhibitors.
# [1] = Dataset S2A, 200 μM compound, BTK-1h, 32 °C, 10 min
SMILES,"water adduct formed (Buffer stability assay; PBS buffer pH 8, 37 °C) [%]","Ibr-H elimination (Buffer stability assay; phosphate buffer pH 8, 37 °C, after 4 days) [%]",BTK Inhibition reported in luminescence assay* (BTK),FI (650)/FI (620) (BTK-1h; [1]),FI (BTK-1h)/FI (BTK-1h+Inhibitor) at 620 nm (BTK-1h; [1]),"FI (BTK-1h)/FI (BTK-1h+Inhibitor) at 620 nm (BTK-1h; Dataset S2B, 200 μM inhibitor added to BTK-1h (2 μm))"
C=C(CN1CCC[C@@H](n2nc(-c3ccc(Oc4ccccc4)cc3)c3c(N)ncnc32)C1)C(=O)NCCOCCOCCOCCOCCC(=O)Nc1cccc2c1CN(C1CCC(=O)NC1=O)C2=O (stereo partly drawn) [1p],5,–,–,–,–,–
C=C(CN1CCC[C@@H](n2nc(-c3ccc(Oc4ccccc4)cc3)c3c(N)ncnc32)C1)C(=O)NCCN [1e],–,25,–,–,–,–
COc1ccc(CC(=O)Nc2nc3c(s2)CCc2ccccc2-3)cc1OC [PCM-0215753-001],–,–,55.9,0.9809,1.022,–
O=c1cc(-c2ccc(O)cc2)oc2cc(O)cc(O)c12 [PCM-0064643-001],–,–,63.8,0.8396,1.036,–
COC1=CC(=O)c2ccccc2C1=O [PCM-0214886-001],–,–,85.6,0.9979,1.038,–
COc1ccc(-c2nc(-c3cc(C(F)(F)F)cc(C(F)(F)F)c3)n(Cc3ccc(C(N)=O)cc3)c2-c2ccc(OC)cc2)cc1 [PCM-0215748-001],–,–,57.1,0.9815,1.0289,–
C[C@@H]1O[C@@H](O[C@H]2[C@H](O[C@H]3CC[C@@]4(C)[C@@H](CC[C@]5(C)[C@@H]4CC=C4[C@@H]6CC(C)(C)CC[C@]6(C(=O)O)CC[C@]45C)[C@]3(C)CO)OC[C@H](O[C@@H]3O[C@H](CO)[C@@H](O)[C@H](O)[C@H]3O)[C@@H]2O)[C@H](O)[C@H](O)[C@H]1O [PCM-0216539-001],–,–,52.5,0.7503,1.048,–
O=c1cc(-c2ccccc2)oc2cc(O)c(O)c(O)c12 [PCM-0214670-001],–,–,79.4,2.028,1.072,–
Cc1c(C(=O)Nc2ccc(Oc3ccnc4[nH]cc(-c5ccccc5)c34)c(F)c2)c(=O)n(-c2ccc(F)cc2)n1C [PCM-0215493-001],–,–,95.9,1.1367,1.0338,–
CC(C)=CCC/C(C)=C/Cc1c(O)c(CC=C(C)C)c2c(c1O)C(=O)C1=C[C@@H]3C[C@H]4C(C)(C)O[C@@](C/C=C(/C)C(=O)O)(C3=O)[C@@]14O2 [PCM-0216347-001],–,–,100.4,1.074,1.011,–
O=S(=O)([O-])c1ccc2cc(N=Nc3cc(S(=O)(=O)[O-])c4cccnc4c3O)ccc2c1.[Na+].[Na+] [PCM-0215685-001],–,–,54.1,1.281,1.027,–
Cn1cc(-c2cc(Oc3cc(F)c(NC(=O)C4(C(=O)Nc5ccccc5)CC4)cc3F)ccn2)cn1 [PCM-0216116-001],–,–,88.8,1.3565,1.092,–
Oc1ccc(Nc2nc(-c3ccc(Cl)cc3)cs2)cc1 [PCM-0095692-002],–,–,84.8,1.023,1.009,–
O=C(Nc1ccc(OC(F)(F)F)cc1)c1sccc1NCc1ccnc2ccccc12 [PCM-0094951-002],–,–,90.3,1.167,1.045,–
Cc1cc(N=Nc2ccc(S(=O)(=O)Nc3ccccn3)cc2)c(N)cc1O [PCM-0215414-001],–,–,76.4,1.18,1.008,–
"Cc1noc(C)c1-c1ccc(-c2cc(C(N)=O)c(NC(N)=O)s2)c(O[C@H]2CCNC2)c1 [PCM-0215541-001, AZD3264]",–,–,74.1,2.057,1.467,–

SMILES,"water adduct formed (Buffer stability assay; PBS buffer pH 8, 37 °C) [%]","Ibr-H elimination (Buffer stability assay; phosphate buffer pH 8, 37 °C, after 4 days) [%]",BTK Inhibition reported in luminescence assay* (BTK),FI (650)/FI (620) (BTK-1h; [1]),FI (BTK-1h)/FI (BTK-1h+Inhibitor) at 620 nm (BTK-1h; [1]),"FI (BTK-1h)/FI (BTK-1h+Inhibitor) at 620 nm (BTK-1h; Dataset S2B, 200 μM inhibitor added to BTK-1h (2 μm))"
O=C(O)C1(Cc2cccc(Nc3nccs3)n2)CCC(Oc2cccc(Cl)c2F)CC1 (stereo not drawn) [PCM-0095334-002],–,–,102.1,1.3013,1.347,–
COc1cc(-c2oc3cc(O)cc(O)c3c(=O)c2O)ccc1O [PCM-0216402-001],–,–,73.4,1.5271,1.051,–
COC(=O)C1=C(C)NC(C)=C(C(=O)O[C@@H]2CCCN(Cc3ccccc3)C2)[C@@H]1c1cccc([N+](=O)[O-])c1.Cl [PCM-0214706-001],–,–,80.9,1.754,1.03,–
Cl.Cl.O=C1c2c(O)ccc(O)c2C(=O)c2c(NCCNCCO)ccc(NCCNCCO)c21 [PCM-0065547-003],–,–,51,1.449,1.019,–
C=CC(=O)Nc1cccc(Oc2nc(Nc3ccc(N4CCN(C)CC4)cc3OC)ncc2Cl)c1 [PCM-0095043-002],–,–,89,0.9704,1.038,–
"O=c1cc(-c2ccc(O)cc2)oc2cc(O)c(O)c(O)c12 [PCM-0216408-001, Scutellarein]",–,–,70.3,4.394,1.081,4.394
Cc1nc(N)sc1-c1ccnc(Nc2ccc(N3CCOCC3)cc2)n1 [PCM-0095025-002],–,–,57.2,1.274,1.071,–
CC1(C)C=Cc2c(ccc3c2OC[C@@H](c2ccc(O)cc2O)C3)O1 [PCM-0214974-001],–,–,70.3,1.13,1.0065,–
COC(=O)C1=C(C)NC(C)=C(C(=O)OCCN2CCN(C(c3ccccc3)c3ccccc3)CC2)C1c1cccc([N+](=O)[O-])c1.Cl.Cl (stereo not drawn) [PCM-0090281-005],–,–,101.2,1.357,1.072,–
O=C(NC(NC(=S)Nc1ccc(F)c([N+](=O)[O-])c1)C(Cl)(Cl)Cl)C(c1ccccc1)c1ccccc1 (stereo not drawn) [PCM-0215199-001],–,–,105.5,0.9898,1.025,–
Cc1ccc(-n2[nH]c(C)c(N=Nc3cccc(-c4cccc(C(=O)O)c4)c3O)c2=O)cc1C [PCM-0214811-001],–,–,80.2,1.073 and 1.008,1.009 and 1.024,–
CN(CC(=O)N(Cc1ccc(C2CCCCC2)cc1)c1ccc(C(=O)O)cc1)S(=O)(=O)c1c(F)c(F)c(F)c(F)c1F [PCM-0095763-002],–,–,68.7,1.026,1.04,–
O=C([O-])CCN1C(=O)/C(=C/c2ccc(-c3ccc([N+](=O)[O-])cc3)o2)SC1=S.[K+] [PCM-0215696-001],–,–,59.5,0.9958,1.02,–
COc1cc2c(Nc3ccc(NC(=O)c4ccccc4)cc3)ncnc2cc1OCCCN1CCOCC1 [PCM-0094881-002],–,–,77.9,1.089,1.079,–
CO[C@@H](C(=O)N1Cc2[nH]nc(NC(=O)c3ccc(N4CCN(C)CC4)cc3)c2C1)c1ccccc1 [PCM-0094888-003],–,–,85.5,1.661,1.3808,–
